Experimental data published in article PMC7997032, “Organic synthesis and anti-influenza A virus activity of cyclobakuchiols A, B, C, and D” (PLoS ONE, 2021).
Values joined by “and” are separate entries in the source; they are usually repeats but may differ in a detail not shown here. Equal values may be shown once.

Experiments:
[1] = test system: A/WSN/33 virus; test: Influenza A viral growth assay (viral titer of culture media); assay type: cell-based, influenza A H1N1 virus; conditions: A/WSN/33 (WSN), 12.5uM, average of #1-3 exp (n=9)
[2] = test system: Nrf2; test: Nrf2 reporter assay (dual luciferase system) in MDCK cells; assay type: cell-based, canine
[3] = test system: NAD(P)H quinone oxidoreductase 1 (Nqo1); test: RT-qPCR of Nqo1 mRNA in MDCK cells with or without A/PR/8/34 virus; assay type: cell-based, canine; conditions: 12.5uM, MDCK, relative to virus - DMSO; for NQO1 Canis lupus mRNA, ave: ave of #1-3 exp; for NQO1 Canis lupus mRNA, individual replicates: replicates 1-3 of #1, #2, #3 exp, listed as Cyclobakuchiol D
[4] = test system: A/WSN/33 virus; test: Immunofluorescence staining of viral NP in influenza A virus-infected MDCK cells; conditions: WSN
[5] = test system: A/PR/8/34 virus; test: Influenza A viral growth assay (viral titer of culture media); assay type: cell-based, influenza A H1N1 virus; set-up: viral titer of culture media, individual replicate / viral titer of culture media, ave: unit not given here; conditions: A/PR/8/34 (PR8), 12.5uM, average of #1-3 exp (n=9)
[6] = test system: canine interferon-β (Ifn-β); test: RT-qPCR of Ifn-β mRNA in MDCK cells with or without A/PR/8/34 virus; assay type: cell-based; conditions: 12.5uM, relative to virus - DMSO; for MDCK IFN-b mRNA, ave: ave of #1-3 exp; for MDCK IFN-b mRNA, individual replicates: replicates 1-3 of #1, #2, #3 exp, listed as Cyclobakuchiol D
[7] = test system: A/PR/8/34 virus; assay type: cell-based; conditions: 12.5 μM, 24h WB
[8] = test system: A/PR/8/34 virus; test: Immunofluorescence staining of viral NP in influenza A virus-infected MDCK cells; conditions: for NP/DAPI (%) ave: average of 9 wells
[9] = test system: A/PR/8/34 virus; test: RT-qPCR of viral mRNAs (NP, NS1, PA, PB1, PB2, M2) in infected MDCK cells; assay type: cell-based, influenza A H1N1 virus
[10] = single experiment, listed as cyclo D
[11] = MDCK cells, PR8 virus, relative to DMSO (about 1), ave of #1-3 exp (9 values)
[12] = MDCK cells, PR8 virus, relative to DMSO, replicates 1-3 of #1, #2, #3 exp, listed as Cyclobakuchiol D

## C=C[C@]1(C)CCC(C(C)(C)O)C(c2ccc(O)cc2)C1 (stereo in doubt) [cyclobakuchiol D]
[1]; 12h
  viral titer of culture media, ave: 10344.4
[1]; 24h
  viral titer of culture media, ave: 25855556
[1]; 48h
  viral titer of culture media, ave: 191111111
[1]; 72h
  viral titer of culture media, ave: 140200000
[2]; 12.5 μM, 24 h, MDCK cells
  Nrf2 activation (reporter assay) in contrast to DMSO: did not induce Nrf2 activation
[2]; 12.5uM, relative to DMSO trans+, ave of #1-3 exp
  pNQO1-ARE-Luc NRF2 reporter assay, ave: 1.2008
[2]; 12.5uM, relative to DMSO trans+, two values each of #1, #2, #3 exp, listed as Cyclobakuchiol D
  pNQO1-ARE-Luc NRF2 reporter assay, individual replicates: 1.181 and 1.006 and 1.453 and 1.158 and 1.274 and 1.134
[3]; virus + (PR8)
  NQO1 Canis lupus mRNA, ave: 1.2349
  NQO1 Canis lupus mRNA, individual replicates: 1.289 and 1.376 and 1.34 and 1.5629 and 0.8611 and 0.8923 and 0.9522 and 1.447 and 1.3929
[3]; virus -
  NQO1 Canis lupus mRNA, ave: 1.178
  NQO1 Canis lupus mRNA, individual replicates: 1.099 and 1.305 and 1.308 and 1.291 and 1.087 and 1.132 and 1.031 and 1.075 and 1.276
[4]; 3.13uM, ave of 9 values (3 exp)
  NP/DAPI (%) ave: 30.4806%
[4]; 6.25uM, ave of 9 values (3 exp)
  NP/DAPI (%) ave: 29.9222%
[4]; 12.5uM, ave of 9 values (3 exp)
  NP/DAPI (%) ave: 34.4723%
[4]; 25uM, ave of 9 values (3 exp)
  NP/DAPI (%) ave: 38.5623%
[4]; ave summary, 3.13%
  NP/DAPI (%) ave: 30.4806%
[4]; ave summary, 6.25%
  NP/DAPI (%) ave: 29.9222%
[4]; ave summary, 12.50%
  NP/DAPI (%) ave: 34.4723%
[4]; ave summary, 25%
  NP/DAPI (%) ave: 38.5623%
[5]; 12h
  viral titer of culture media, ave: 23333.3
[5]; 24h
  viral titer of culture media, ave: 46666.7
[5]; 48h
  viral titer of culture media, ave: 42222.2
[5]; 72h
  viral titer of culture media, ave: 51111.1
[6]; virus +
  MDCK IFN-b mRNA, ave: 17.4654
  MDCK IFN-b mRNA, individual replicates: 2.418 and 33.9435 and 15.7832 and 32.7435 and 6.882 and 51.6835 and 8.73 and 2.955 and 2.05
[6]; virus -
  MDCK IFN-b mRNA, ave: 2.784
  MDCK IFN-b mRNA, individual replicates: 0.8154 and 7.71 and 7.894 and 3.201 and 1.087 and 1.374 and 1.346 and 0.9591 and 0.6654
[7]; average of 3 experiments
  NP/b-actin ave: 0.8053
  NS1/b-actin ave: 0.5049
[7]; [10]
  NP mean (western blot signal intensity, ImageJ): 94.385 and 99.104 and 119.4
  NP/b-actin: 0.9145 and 0.7726 and 0.7289
  NS1/b-actin: 0.4761 and 0.5377 and 0.5009
  NS1 mean (western blot signal intensity, ImageJ): 65.696 and 68.111 and 62.157
[8]; A/PR/8/34, 3.13 uM
  NP/DAPI (%) ave: 8.962%
[8]; A/PR/8/34, 3.13 uM, single well, listed as Cyclobaku. D
  NP (NP-positive cell count): 26 and 38 and 24 and 36 and 32 and 28 and 35 and 30
[8]; A/PR/8/34, 6.25 uM
  NP/DAPI (%) ave: 5.506%
[8]; A/PR/8/34, 12.5 uM
  NP/DAPI (%) ave: 1.974%
[8]; A/PR/8/34, 25 uM
  NP/DAPI (%) ave: 1.609%
[8]; Influenza A virus, PR/8, MDCK, read-out: half maximal (50%) inhibitory concentration (IC50)
  IC50: 8.8 ± 2.4 µM
[9]; MDCK PR8, NP mRNA, relative (DMSO about 1), average of #1-3 exp (n=9)
  PR8 NP gene expression qPCR, ave: 0.07153
[9]; MDCK PR8, NP mRNA, relative (DMSO about 1), replicates of #1-3 exp, listed as Cyclobakuchiol D
  PR8 NP gene expression qPCR, individual replicate: 0.03886 and 0.05994 and 0.05606 and 0.05458 and 0.125 and 0.1151 and 0.1425 and 0.0275 and 0.02409
[9]; MDCK PR8, NS1 mRNA, relative (DMSO about 1), average of #1-3 exp (n=9)
  PR8 NS1 gene expression qPCR, ave: 0.04518
[9]; MDCK PR8, NS1 mRNA, relative (DMSO about 1), replicates of #1-3 exp, listed as Cyclobakuchiol D
  PR8 NS1 gene expression qPCR, individual replicate: 0.02832 and 0.04013 and 0.04518 and 0.04355 and 0.06568 and 0.06468 and 0.07589 and 0.02316 and 0.02
[9]; MDCK PR8, PA mRNA, relative (DMSO about 1), average of #1-3 exp (n=9)
  PR8 PA gene expression qPCR, ave: 0.04749
[9]; MDCK PR8, PA mRNA, relative (DMSO about 1), replicates of #1-3 exp, listed as Cyclobakuchiol D
  PR8 PA gene expression qPCR, individual replicate: 0.03007 and 0.03859 and 0.03028 and 0.03293 and 0.08115 and 0.07941 and 0.08873 and 0.02395 and 0.02226
[9]; [11]
  PR8 M2 gene expression qPCR, ave: 0.04919
  PR8 PB1 gene expression qPCR, ave: 0.04173
  PR8 PB2 gene expression qPCR, ave: 0.05311
[9]; [12]
  PR8 M2 gene expression qPCR, individual replicates: 0.03101 and 0.05567 and 0.03306 and 0.04539 and 0.07613 and 0.07839 and 0.08038 and 0.02111 and 0.02153
  PR8 PB1 gene expression qPCR, individual replicates: 0.03148 and 0.02292 and 0.01741 and 0.02275 and 0.0784 and 0.07991 and 0.07514 and 0.02623 and 0.02132
  PR8 PB2 gene expression qPCR, individual replicates: 0.03118 and 0.04821 and 0.03936 and 0.04228 and 0.08338 and 0.07806 and 0.1008 and 0.0302 and 0.02454
